Experimental data from paper PMC9525679, “Inositol hexakisphosphate is required for Integrator function” (Nature Communications, 2022).

T1: Drosophila IntS9, subunit of the Integrator cleavage module (Drosophila (D. melanogaster), UniProt Q95TS5 1-654)
T1 construct: Integrator complex subunit 9 (IntS9), Drosophila; Cloned into the pFL acceptor vector together with IntS11; no tag is stated; also called Integrator subunit 9
T1 sequence: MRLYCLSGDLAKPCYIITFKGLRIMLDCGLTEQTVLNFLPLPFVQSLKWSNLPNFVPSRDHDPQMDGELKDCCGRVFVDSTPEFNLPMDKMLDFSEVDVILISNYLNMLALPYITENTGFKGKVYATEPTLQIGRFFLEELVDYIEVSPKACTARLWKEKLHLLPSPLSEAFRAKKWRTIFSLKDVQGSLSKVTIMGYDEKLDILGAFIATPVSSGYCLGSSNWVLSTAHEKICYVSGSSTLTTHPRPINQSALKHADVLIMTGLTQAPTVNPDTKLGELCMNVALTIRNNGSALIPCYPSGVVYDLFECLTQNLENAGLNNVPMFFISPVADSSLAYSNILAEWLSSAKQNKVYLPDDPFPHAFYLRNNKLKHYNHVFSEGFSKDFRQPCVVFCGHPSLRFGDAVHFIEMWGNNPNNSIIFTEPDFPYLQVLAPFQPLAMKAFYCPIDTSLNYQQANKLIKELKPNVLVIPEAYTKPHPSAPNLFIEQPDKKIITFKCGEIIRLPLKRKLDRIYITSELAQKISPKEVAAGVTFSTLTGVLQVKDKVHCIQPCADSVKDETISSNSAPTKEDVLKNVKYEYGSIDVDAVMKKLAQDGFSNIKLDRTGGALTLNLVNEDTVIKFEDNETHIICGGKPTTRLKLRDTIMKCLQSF

T2: Drosophila IntS4 (N-terminal 6xHis-tagged), subunit of the Integrator cleavage module (Drosophila (D. melanogaster), UniProt Q9W3E1 1-1022)
T2 construct: Integrator complex subunit 4 (IntS4), Drosophila; Residues beyond 570 (CTD) were not modelled in the structure; also called Integrator subunit 4
T2 sequence: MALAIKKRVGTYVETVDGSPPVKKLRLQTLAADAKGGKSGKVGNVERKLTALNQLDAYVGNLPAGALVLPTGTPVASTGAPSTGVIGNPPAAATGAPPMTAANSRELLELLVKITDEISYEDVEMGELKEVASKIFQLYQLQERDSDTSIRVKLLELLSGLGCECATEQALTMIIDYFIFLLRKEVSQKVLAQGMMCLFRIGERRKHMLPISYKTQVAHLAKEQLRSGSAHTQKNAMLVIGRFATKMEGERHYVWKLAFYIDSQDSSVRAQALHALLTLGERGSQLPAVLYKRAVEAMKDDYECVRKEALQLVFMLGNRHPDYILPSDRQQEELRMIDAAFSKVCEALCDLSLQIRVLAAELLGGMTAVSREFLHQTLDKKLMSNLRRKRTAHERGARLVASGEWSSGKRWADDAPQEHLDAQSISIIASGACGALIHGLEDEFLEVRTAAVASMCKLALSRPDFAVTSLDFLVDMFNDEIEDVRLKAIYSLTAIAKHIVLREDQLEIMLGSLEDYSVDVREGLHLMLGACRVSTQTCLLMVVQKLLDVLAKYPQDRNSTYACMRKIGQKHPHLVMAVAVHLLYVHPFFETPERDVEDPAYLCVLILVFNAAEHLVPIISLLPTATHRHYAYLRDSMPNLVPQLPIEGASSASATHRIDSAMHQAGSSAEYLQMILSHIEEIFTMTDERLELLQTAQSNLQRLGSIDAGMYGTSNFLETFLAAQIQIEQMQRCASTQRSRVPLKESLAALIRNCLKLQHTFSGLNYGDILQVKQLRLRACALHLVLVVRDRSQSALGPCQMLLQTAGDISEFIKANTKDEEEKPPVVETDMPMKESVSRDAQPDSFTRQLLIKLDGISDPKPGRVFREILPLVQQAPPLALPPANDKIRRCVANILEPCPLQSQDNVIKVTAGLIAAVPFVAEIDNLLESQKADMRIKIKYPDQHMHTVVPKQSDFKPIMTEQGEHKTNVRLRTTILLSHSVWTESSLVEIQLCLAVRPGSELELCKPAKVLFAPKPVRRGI


Columns and labels:
[1] = molecular target: T3, human INTS4-INTS9-INTS11 complex (human ICM) (Homo sapiens, UniProt Q5TA45+Q96HW7+Q9NV88); experiment: LC-MS/MS of co-purified ligand; IP6 also fitted into published human ICM map (EMDB […]); format: binding; conditions: ligand co-purified from insect cells, none added
T3 construct: three-subunit complex purified from insect cell expression

[2] = molecular target: T4, human INTS4-INTS9-INTS11 complex (human ICM) (Homo sapiens, UniProt Q5TA45+Q96HW7+Q9NV88, Q5TA45:K462E); experiment: LC-MS/MS of co-purified ligand; format: binding; conditions: ligand co-purified from insect cells, none added; site mutant, gel filtration profile comparable to wild type
T4 construct: three-subunit complex purified from insect cell expression

[3] = molecular target: T5, Drosophila IntS4-IntS9-IntS11 complex (Drosophila ICM, Integrator cleavage module) (Drosophila melanogaster, UniProt Q95TS5+Q9VAH9+Q9W3E1, Q9VAH9:K462E); experiment: LC-MS/MS of co-purified ligand; format: binding; conditions: ligand co-purified from insect cells, none added; site mutant, gel filtration profile comparable to wild type
T5 construct: IntS4 (N-terminal 6xHis), IntS9 and IntS11 co-expressed in Tni insect cells; IP6 co-purified from the host; free IntS9 N-terminus contacts IP6

[4] = molecular target: T6, human INTS4-INTS9-INTS11 complex (human ICM) (Homo sapiens, UniProt Q5TA45+Q96HW7+Q9NV88, Q9NV88:K510E/Q9NV88:R511E); experiment: LC-MS/MS of co-purified ligand; format: binding; conditions: ligand co-purified from insect cells, none added; site mutant, gel filtration profile comparable to wild type
T6 construct: three-subunit complex purified from insect cell expression

[5] = molecular target: T7, Drosophila IntS4-IntS9-IntS11 complex (Drosophila ICM, Integrator cleavage module) (Drosophila melanogaster, UniProt Q95TS5+Q9VAH9+Q9W3E1); experiment: cryo-EM structure ([…] Å); LC-MS/MS of co-purified ligand; format: binding; conditions: ligand co-purified from insect cells, none added; site at interface of IntS4, IntS9 and IntS11, 55 Å from the IntS11 active site
T7 construct: IntS4 (N-terminal 6xHis), IntS9 and IntS11 co-expressed in Tni insect cells; IP6 co-purified from the host; free IntS9 N-terminus contacts IP6

[6] = molecular target: T1, Drosophila IntS9, subunit of the …; experiment: SEC; gel filtration (Hiload 16/60 Superdex 200) of wild-type and K462E mutant Drosophila ICM co-expressed in insect cells, after nickel affinity; SDS gel of the complex; conditions: both partners purified
[7] = molecular target: T2, Drosophila IntS4 (N-terminal …); experiment: as above; conditions: both partners purified

T7 sequence (Q9VAH9 whole entry, one chain of several): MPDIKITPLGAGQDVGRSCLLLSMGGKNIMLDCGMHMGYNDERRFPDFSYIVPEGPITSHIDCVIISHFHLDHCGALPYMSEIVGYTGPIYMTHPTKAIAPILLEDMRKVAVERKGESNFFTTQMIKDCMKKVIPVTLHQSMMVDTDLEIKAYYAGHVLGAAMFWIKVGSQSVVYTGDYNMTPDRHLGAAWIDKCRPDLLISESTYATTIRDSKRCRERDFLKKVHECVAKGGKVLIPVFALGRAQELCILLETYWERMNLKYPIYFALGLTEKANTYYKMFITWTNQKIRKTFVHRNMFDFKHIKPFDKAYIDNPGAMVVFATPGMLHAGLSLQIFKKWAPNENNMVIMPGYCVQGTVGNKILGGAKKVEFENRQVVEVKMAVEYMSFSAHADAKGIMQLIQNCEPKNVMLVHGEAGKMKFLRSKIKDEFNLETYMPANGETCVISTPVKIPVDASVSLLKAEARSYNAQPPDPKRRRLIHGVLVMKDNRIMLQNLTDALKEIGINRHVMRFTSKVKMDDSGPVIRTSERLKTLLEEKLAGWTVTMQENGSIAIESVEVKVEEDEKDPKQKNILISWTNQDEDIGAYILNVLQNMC
T3 sequence (Q96HW7 whole entry): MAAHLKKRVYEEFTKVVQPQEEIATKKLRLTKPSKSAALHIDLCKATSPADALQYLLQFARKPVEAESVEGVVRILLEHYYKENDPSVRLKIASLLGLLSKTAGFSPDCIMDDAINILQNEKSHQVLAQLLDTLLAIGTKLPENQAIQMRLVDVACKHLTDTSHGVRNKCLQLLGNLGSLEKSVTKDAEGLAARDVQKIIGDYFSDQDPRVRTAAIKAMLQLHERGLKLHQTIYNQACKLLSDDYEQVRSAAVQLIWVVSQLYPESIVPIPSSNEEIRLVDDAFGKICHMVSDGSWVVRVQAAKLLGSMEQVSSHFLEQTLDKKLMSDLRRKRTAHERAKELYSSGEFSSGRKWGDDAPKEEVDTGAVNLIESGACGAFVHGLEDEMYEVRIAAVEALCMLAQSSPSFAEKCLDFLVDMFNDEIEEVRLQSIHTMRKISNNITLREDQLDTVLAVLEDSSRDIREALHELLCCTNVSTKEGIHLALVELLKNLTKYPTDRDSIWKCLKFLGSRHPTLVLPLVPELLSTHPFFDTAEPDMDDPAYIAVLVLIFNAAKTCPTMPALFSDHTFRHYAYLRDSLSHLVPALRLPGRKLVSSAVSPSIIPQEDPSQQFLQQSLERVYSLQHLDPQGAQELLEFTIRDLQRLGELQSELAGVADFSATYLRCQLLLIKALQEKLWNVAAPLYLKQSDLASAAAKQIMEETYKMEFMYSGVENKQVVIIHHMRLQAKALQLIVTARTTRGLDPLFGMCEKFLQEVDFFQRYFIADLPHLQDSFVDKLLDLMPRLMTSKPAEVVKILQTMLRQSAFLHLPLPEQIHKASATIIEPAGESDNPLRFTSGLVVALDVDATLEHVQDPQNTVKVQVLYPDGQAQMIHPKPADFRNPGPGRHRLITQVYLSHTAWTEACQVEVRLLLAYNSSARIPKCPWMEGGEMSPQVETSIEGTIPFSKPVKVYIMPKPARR
T3 sequence (Q9NV88 whole entry): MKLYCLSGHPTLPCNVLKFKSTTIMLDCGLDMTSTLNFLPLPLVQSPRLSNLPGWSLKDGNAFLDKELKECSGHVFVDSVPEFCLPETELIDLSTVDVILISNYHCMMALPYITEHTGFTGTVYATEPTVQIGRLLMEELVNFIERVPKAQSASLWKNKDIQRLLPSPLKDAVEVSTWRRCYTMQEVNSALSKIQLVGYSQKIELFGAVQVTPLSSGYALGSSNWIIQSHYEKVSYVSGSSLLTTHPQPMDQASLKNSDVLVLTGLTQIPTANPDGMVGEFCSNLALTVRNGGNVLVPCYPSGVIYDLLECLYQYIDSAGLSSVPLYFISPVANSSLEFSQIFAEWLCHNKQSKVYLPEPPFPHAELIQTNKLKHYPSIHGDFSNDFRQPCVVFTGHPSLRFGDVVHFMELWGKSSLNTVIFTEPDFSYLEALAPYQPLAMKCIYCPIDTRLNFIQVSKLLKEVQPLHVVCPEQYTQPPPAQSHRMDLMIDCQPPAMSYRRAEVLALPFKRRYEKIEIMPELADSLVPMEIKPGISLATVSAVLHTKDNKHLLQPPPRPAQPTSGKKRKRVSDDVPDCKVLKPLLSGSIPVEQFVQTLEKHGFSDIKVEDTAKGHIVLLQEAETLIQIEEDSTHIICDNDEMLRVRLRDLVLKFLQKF
T3 sequence (Q5TA45 whole entry): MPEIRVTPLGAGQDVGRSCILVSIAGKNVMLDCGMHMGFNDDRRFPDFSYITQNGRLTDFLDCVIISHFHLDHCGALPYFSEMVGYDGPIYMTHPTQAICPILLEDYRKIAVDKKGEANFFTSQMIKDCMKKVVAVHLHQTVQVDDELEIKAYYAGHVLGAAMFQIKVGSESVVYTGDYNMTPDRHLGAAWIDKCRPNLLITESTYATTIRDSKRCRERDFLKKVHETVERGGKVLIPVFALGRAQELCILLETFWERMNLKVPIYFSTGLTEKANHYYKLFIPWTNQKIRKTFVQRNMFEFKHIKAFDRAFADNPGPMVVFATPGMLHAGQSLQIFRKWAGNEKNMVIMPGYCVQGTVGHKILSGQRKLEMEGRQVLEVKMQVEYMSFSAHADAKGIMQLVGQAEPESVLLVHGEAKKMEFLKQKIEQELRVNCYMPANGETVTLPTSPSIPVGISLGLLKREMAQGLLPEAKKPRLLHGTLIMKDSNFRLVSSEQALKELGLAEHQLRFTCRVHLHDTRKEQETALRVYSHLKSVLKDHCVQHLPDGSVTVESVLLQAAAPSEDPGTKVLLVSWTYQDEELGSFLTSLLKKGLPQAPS
T4 sequence (Q96HW7 whole entry): as the sequence (Q96HW7 whole entry) above
T4 sequence (Q9NV88 whole entry): as the sequence (Q9NV88 whole entry) above
T4 sequence (Q5TA45 whole entry K462E): as the sequence (Q5TA45 whole entry) above, with K462E counted along it
T6 sequence (Q96HW7 whole entry): as the sequence (Q96HW7 whole entry) above
T6 sequence (Q9NV88 whole entry K510E/R511E): as the sequence (Q9NV88 whole entry) above, with K510E, R511E counted along it
T6 sequence (Q5TA45 whole entry): as the sequence (Q5TA45 whole entry) above

| Molecule | LC-MS/MS of co-purified ligand; IP6 also fitted into published human ICM map (EM) [1] | IP6 detection [2] | IP6 detection [3] | IP6 detection [4] | cryo-EM structure (2.74 Å); LC-MS/MS of co-purified ligand [5] | binding result [6] | binding result [7] |
| --- | --- | --- | --- | --- | --- | --- | --- |
| O=P(O)(O)O[C@H]1[C@H](OP(=O)(O)O)[C@@H](OP(=O)(O)O)[C@H](OP(=O)(O)O)[C@@H](OP(=O)(O)O)[C@H]1OP(=O)(O)O [inositol hexakisphosphate] | confirm by mass spectrometry the binding of IP6 to wild-type human or Drosophila ICM samples | we failed to detect IP6 in our mass spectrometry experiments on them | we failed to detect IP6 in our mass spectrometry experiments on them | human ICM sample containing the K510E/R511E double mutation in IntS9 | The structure of Drosophila ICM unexpectedly revealed the presence of an inositol hexakisphosphate (IP6) molecule |  |  |
| Drosophila IntS11 K462E (in the K462E mutant Drosophila ICM) (enzyme, Drosophila (D. melanogaster), Integrator complex subunit 11 (IntS11), Drosophila, with K462E; also called K462E mutant of Drosophila ICM; source: insect cells, purified as ICM sample) MPDIKITPLGAGQDVGRSCLLLSMGGKNIMLDCGMHMGYNDERRFPDFSYIVPEGPITSHIDCVIISHFHLDHCGALPYMSEIVGYTGPIYMTHPTKAIAPILLEDMRKVAVERKGESNFFTTQMIKDCMKKVIPVTLHQSMMVDTDLEIKAYYAGHVLGAAMFWIKVGSQSVVYTGDYNMTPDRHLGAAWIDKCRPDLLISESTYATTIRDSKRCRERDFLKKVHECVAKGGKVLIPVFALGRAQELCILLETYWERMNLKYPIYFALGLTEKANTYYKMFITWTNQKIRKTFVHRNMFDFKHIKPFDKAYIDNPGAMVVFATPGMLHAGLSLQIFKKWAPNENNMVIMPGYCVQGTVGNKILGGAKKVEFENRQVVEVKMAVEYMSFSAHADAKGIMQLIQNCEPKNVMLVHGEAGKMKFLRSKIKDEFNLETYMPANGETCVISTPVKIPVDASVSLLEAEARSYNAQPPDPKRRRLIHGVLVMKDNRIMLQNLTDALKEIGINRHVMRFTSKVKMDDSGPVIRTSERLKTLLEEKLAGWTVTMQENGSIAIESVEVKVEEDEKDPKQKNILISWTNQDEDIGAYILNVLQNMC |  |  |  |  |  | binds | binds |
